According to patent US6897227B2, “Prodrugs of proton pump inhibitors” (Winston Pharmaceuticals, Inc., priority 2002, dated 2005):

Experiments:
gastric acid secretion = assay: Inhibition of gastric acid secretion in rat, intravenous administration; type: in vivo; settings: 5 μmole/kg
Description: (§1) 3 hours after administration the abdomen of the rat was incised and the pylorus was ligated under light ether anethesia. Histamine (30 mg/kg) and carbachol (30 μg/kg) were subcutaneously injected for acid stimulation. Immediately the abdomen was closed. Two hours later, the esophagus was ligated and the stomach was removed. The gastric juice was collected and acid output was quantified by titration using 0.1 N NaOH solution. As a control experiment, 1 ml of 50 mM phosphate buffer (pH 7.4) solution was orally administrated without any prodrug or proton pump inhibitory drug. Acid output was quantified by same method as described above, showing maximum histamine and carbachol-stimulated gastric acid secretion. Percentage inhibition was calculated from the fractional responses elicited by the test compound and a control experiment.
Inhibition of gastric acid secretion after intravenous administration of compounds of the invention was also examined. Lansoprazole sodium salt (20 mg) was dissolved in 40% hydroxypropyl-beta-cyclodextrin. The compounds of the invention used in this experiment were dissolved in phosphate buffered saline solution of pH 7.4. Each compound was injected intravenously at a dose of 5 μmole/kg or 10 μmole/kg (μmole per kg body weight of rat) as indicated in Table 4 below. Between 2 to 4 hours after injection gastric juice was collected, and the percentage of inhibition was determined as described above.

[1] = Stability in plasma at 37° C. (gradient HPLC-UV), rat plasma; type: in vitro ADME
Description: Exemplary test compounds (prodrugs) of the invention were incubated in plasma at 37° C., and the concentration of the compounds and also of the corresponding proton pump inhibitor compounds (PPI) were determined by a gradient HPLC-UV method. Although the half-lives of test compounds in plasma varies depending on their structure, nevertheless it is apparent that in plasma the compounds of the invention are converted into the corresponding proton pump inhibitor at a rate faster than the hydrolysis rate of the compound at neutral or near neutral pH.

[2] = Aqueous solubility (water / distilled water); type: physicochemical; settings: free carboxylic acids
From the text: A further significant advantage of the proton pump inhibitor prodrugs of the present invention relative to the proton pump inhibitor prodrugs disclosed in U.S. Pat. No. 6,093,734, 6,559,167 and PCT Publication WO 00109498 and to all other prior art is their increased solubility.

[3] = system: histamine and carbachol-stimulated gastric acid secretion; assay: Inhibition of gastric acid secretion of the conscious male rat, oral administration; type: in vivo, rat (Sprague-Dawley); settings: sodium salt
Description: Male rats (the Sprague-Dawley strain) were used in this experiment. OMEPRAZOLE sodium salt or LANSOPRAZOLE sodium salt (20 mg) was suspended in 10 ml of 0.1 N NaHCO3. 40 mg of each of the sodium salts of Compound 1, Compound 2, Compound 3, Compound 4, Compound 6 Compound 9, Compound 12, mixture (1:1) of Compound 16 and 17, mixture (1:1) of Compound 18 and 19, mixture (1:1) of Compound 20 and 21, mixture (1:1) of Compound 22 and 23, Compound 27, mixture (1:1) of Compound 34 and 35, and Compound 36 were dissolved in 10 ml of 50 mM sodium phosphate buffer, pH 7.4. The doses administered to the rats were as follows (μmole per kg body weight of the rat): OMEPRAZOLE (10 μmole/kg), LANSOPRAZOLE (10 μmole/kg), Compound 120 μmole/kg, Compound 2 40 μmole/kg, Compound 320 μmole/kg, Compound 420 μmole/kg, Compound 620 μmole/kg, Compound 940 μmole/kg, Compound 1240 μmole/kg, mixture (1:1) of Compound 16 and 17 40 μmole/kg, mixture (1:1) of Compound 18 and 19 40 μmole/kg, mixture (1:1) of Compound 20 and 21 40 μmole/kg, mixture (1:1) of Compound 22 and 23 40 μmole/kg, Compound 27 40 μmole/kg, mixture (1:1) of Compound 34 and 35 40 μmole/kg, and Compound 3640 μmole/kg. These drug solutions were orally administered.
as §1

[4] = Solubility in phosphate buffered saline buffer of pH 7.4 at 37° C.; type: physicochemical; settings: aqueous buffer, sodium salts, phosphate buffered saline buffer pH 7.4, read-out: Solubility at 37° C. Conc.
Description: The solubility of the sodium salts of certain exemplary compounds of the present invention in a phosphate buffered saline buffer of pH 7.4 (50 mM sodium phosphate, 10 mM KCl, 0.1 M NaCl) and also in a more acidic Britton Robinson buffer of pH 3 (40 mM acetic acid, 40 mM phosphoric acid, 40 mM boric acid, 36 mM NaOH, and 19.6 mg/ml KCl) was also evaluated. […] The tested compounds were much less soluble little in the Britton Robinson buffer of pH 3, but still more soluble than the prior art compounds (a) through (f). This is understandable in view of the fact that in the buffer of pH 7.4 the compounds of the invention form a sodium salt, whereas in the buffer of pH 3 the compounds are less soluble free carboxylic acids. Thus, a solution of a sodium or other pharmaceutically acceptable salt of the compounds of the invention, or stated in an other way the compounds of the invention at pH 7 or above are highly soluble and therefore suitable for administration by intravenous injection.

[5] = Stability in Britton Robinson buffers (hydrolysis of prodrug to PPI, HPLC); settings: Britton Robinson buffer, pH 7
Description: (§2) The stability of Compounds 1, 2, 3, 4 and 5 of the invention in aqueous solution (0.1 mg/mL) was investigated in Britton Robinson buffers of pH 3, pH 7, and pH 9, respectively. A solution of 0.1 mg/mL concentration of each compound in each buffer was prepared and the solutions were stored at 37° C. for 1 h and then the concentrations of test compounds were determined by HPLC.

[6] = buffer
Description: as §2

Question: Which “% inhibition of gastric acid secretion between 2-4 hours after i.v. administration” value (gastric acid secretion) does the source give for `Cc1c(OCC(F)(F)F)ccnc1C[S+]([O-])c1nc2ccccc2n1S(=O)(=O)c1ccc(OCC(=O)[O-])cc1.[Na+]` (centres unmarked) [Compound 2, (4-{2-[3-Methyl-4-(2,2,2-trifluoro-ethoxy)-pyridin-2-ylmethanesulfinyl]-benzimidazole-1-sulfonyl}-phenoxy)acetic acid sodium salt] here?
Answer: The value was 63.1 ± 31.7%.

Question: And the half-life [1]?
Answer: The half-life was 18 min.

Question: What about the solubility [2] of the same compound?
Answer: Its solubility is > 0.1 mg/mL.

Question: What about the inhibition in vivo at 40 µmol/kg ([3]; 40 μmole/kg, read-out: % inhibition of gastric acid secretion between 3-5 hours after administration) of the same compound?
Answer: Its inhibition in vivo at 40 µmol/kg is 64.2 ± 11.3%.

Question: What about the solubility [4] of the same compound?
Answer: The solubility was > 50 mg/mL.

Question: And the half-life at 0.1 mg/mL [5]?
Answer: The half-life at 0.1 mg/mL was > 50 h.

Question: Which “Half-life of hydrolysis at pH 7 of the prodrug to the corresponding proton pump inhibitory drug” value [6] does the source give for `CCC(Oc1ccc(S(=O)(=O)n2c([S+]([O-])Cc3nccc(OCC(F)(F)F)c3C)nc3ccccc32)cc1)C(=O)O` (centres unmarked) [Compound 4, 2-(4-{2-[3-Methyl-4-(2,2,2-trifluoro-ethoxy)-pyridin-2-ylmethanesulfinyl]-benzimidazole-1-sulfonyl}phenoxy)butric acid] here?
Answer: The value was “over 50 hours”.

Question: And the “% inhibition of gastric acid secretion between 3-5 hours after administration” value ([3]; 20 μmole/kg)?
Answer: The value was 60.9 ± 25.5%.
